Experimental data reported in patent publication US20070167492A1, “Molluscicidal agents” (priority 2003, published 2007).

How the values were obtained:
[1] = test system: Winter wheat (Kampa race) seeds; experiment: Seed germination test of treated winter wheat seeds (rolled in paper); type: in vivo; settings: 3x50 seeds, 6 days at 22° C.
Experimental: (§1) Winter wheat (Kampa race; thousand grain weight of 51 grams) was used in an experiment to test the efficacy of the compositions of the present inventions in relation to known molluscicidal compounds. The seeds were disinfected for soil and germ moulds with 2 ml of Beret Gold (comprising 25 g/l of the fungicide fludioxonil) per kg of seed.
(§2) Sepiret® was added to all dry disinfections, and is the coating that was added to all agents of which the formulation was not suitable for coating.
Table 2 provides an overview of the amounts of diluent water and Sepiret® used for treating the wheat seeds. Table 2 further provides the quality of the coating and the percentages of germinating seeds in a seed germination test. In this test, the percentage of germination of 3×50 seeds, rolled in paper, was determined after 6 days at 22° C. (continuously) and a 16 hours light regime.

[2] = test system: Deroceras reticulatum (grey field slug); experiment: Example 1: pot test, treated winter wheat seed with 5 adult slugs per pot, 14 days; type: in vivo; settings: for differences in the number of damaged seeds / protection / slug controlling effect (conclusion): Example 1, dosages tested; for protection / slug controlling effect (conclusion): winter wheat seed treatment
Experimental: as §1, §2
The seeds were sown in earthenware pots with an internal diameter of 20 cm and a height of 18 cm, filled with 7 cm of potting soil (Trio BV, Weesp, The Netherlands) and with a top 2 cm of white quartz sand. A total of 40 seeds was placed in each pot, in a pattern of concentric circles on top of the quartz sand, the germ facing upwards. To each pot a total of 5 adult specimens of the test slug Deroceras reticulatum (grey field slug) were added. The pots were incubated at ±15° C. with a relative humidity of ±90% and light regime of ±12 hours light/12 hours dark, without artificial lighting. The pots were not irrigated overhead. In total, 4 parallel tests were performed for each test.
Following the addition of the slugs, the number of damaged seeds was counted after 2, 3, 7, 10 and 14 days. The number of plants present (germinated and not eaten or damaged by the slugs) was determined 3, 7, 10 and 14 days after the start of the test. […] The number of dead slugs was counted 2, 3, 7, 10 and 14 days after the start of the test (but not removed). Finally, on days 3, 7, 10 and 14 after the start of the test, the number fecal pellets was counted.
The data were statistically analysed by using F-tests (α=0.05) and pair-wise Student-tests.

[3] = 2 ml formulated per kg seed, 2 days after sowing
[4] = 2 ml formulated per kg seed, 3 days after sowing
[5] = 2 ml formulated per kg seed, 7 days after sowing
[6] = 2 ml formulated per kg seed, 10 days after sowing
[7] = 2 ml formulated per kg seed, 14 days after sowing
[8] = 10 ml formulated per kg seed, 2 days after sowing
[9] = 10 ml formulated per kg seed, 3 days after sowing
[10] = 10 ml formulated per kg seed, 7 days after sowing
[11] = 10 ml formulated per kg seed, 10 days after sowing
[12] = 10 ml formulated per kg seed, 14 days after sowing
[13] = 4 ml formulated per kg seed, 2 days after sowing
[14] = 4 ml formulated per kg seed, 3 days after sowing
[15] = 4 ml formulated per kg seed, 7 days after sowing
[16] = 4 ml formulated per kg seed, 10 days after sowing
[17] = 4 ml formulated per kg seed, 14 days after sowing
[18] = 8 ml formulated per kg seed, 2 days after sowing
[19] = 8 ml formulated per kg seed, 3 days after sowing
[20] = 8 ml formulated per kg seed, 7 days after sowing
[21] = 8 ml formulated per kg seed, 10 days after sowing
[22] = 8 ml formulated per kg seed, 14 days after sowing
[23] = 23 ml formulated per kg seed, 2 days after sowing
[24] = 23 ml formulated per kg seed, 3 days after sowing
[25] = 23 ml formulated per kg seed, 7 days after sowing
[26] = 23 ml formulated per kg seed, 10 days after sowing
[27] = 23 ml formulated per kg seed, 14 days after sowing

CC=C(C)C(=O)OC1CC(OC(C)=O)C2(C(=O)OC)COC3C2C12COC(O)(C(=O)OC)C2C(C)(C12OC1(C)C1CC2OC2OC=CC21O)C3O (stereo not shown) [azadirachtine]
Percentage germinated ([1]; 2 ml formulated per kg seed): 90%
Percentage germinated ([1]; 10 ml formulated per kg seed): 65%
number of utilizable plants after 14 days ([2]; 2 ml formulated per kg seed): 0.8
percentage of damaged seeds after 14 days ([2]; 2 ml formulated per kg seed): 95%
Mean number of damaged seeds per pot [2, 3]: 5.8
Mean number of dead slugs per pot [2, 3]: 0.3
Mean number fecal pellets per pot [2, 4]: 62
Mean number of damaged seeds per pot [2, 4]: 20.8
Mean number of dead slugs per pot [2, 4]: 0.3
Mean number of plants present per pot [2, 4]: 5.3
Mean number fecal pellets per pot [2, 5]: 106
Mean number of damaged seeds per pot [2, 5]: 37.0
Mean number of dead slugs per pot [2, 5]: 0.3
Mean number of plants present per pot [2, 5]: 1.0
Mean number fecal pellets per pot [2, 6]: 139
Mean number of damaged seeds per pot [2, 6]: 37.0
Mean number of dead slugs per pot [2, 6]: 0.3
Mean number of plants present per pot [2, 6]: 1.3
Mean number fecal pellets per pot [2, 7]: 156
Mean number of damaged seeds per pot [2, 7]: 38.0
Mean number of dead slugs per pot [2, 7]: 0.5
Mean number of plants present per pot [2, 7]: 0.8
number of utilizable plants after 14 days ([2]; 10 ml formulated per kg seed): 2.3
percentage of damaged seeds after 14 days ([2]; 10 ml formulated per kg seed): 86%
Mean number of damaged seeds per pot [2, 8]: 4.0
Mean number of dead slugs per pot [2, 8]: 0
Mean number fecal pellets per pot [2, 9]: 32
Mean number of damaged seeds per pot [2, 9]: 13.0
Mean number of dead slugs per pot [2, 9]: 0
Mean number of plants present per pot [2, 9]: 4.8
Mean number fecal pellets per pot [2, 10]: 93
Mean number of damaged seeds per pot [2, 10]: 30.5
Mean number of dead slugs per pot [2, 10]: 0
Mean number of plants present per pot [2, 10]: 2.8
Mean number fecal pellets per pot [2, 11]: 130
Mean number of damaged seeds per pot [2, 11]: 32.5
Mean number of dead slugs per pot [2, 11]: 0.3
Mean number of plants present per pot [2, 11]: 3.3
Mean number fecal pellets per pot [2, 12]: 138
Mean number of damaged seeds per pot [2, 12]: 34.5
Mean number of dead slugs per pot [2, 12]: 0.3
Mean number of plants present per pot [2, 12]: 3.8
differences in the number of damaged seeds [2]: did not result in significant differences
protection / slug controlling effect (conclusion) [2]: no sufficient protection to the plants

CN1COCN(Cc2cnc(Cl)s2)/C1=N\[N+](=O)[O-] [thiamethoxam]
Percentage germinated ([1]; 2 ml formulated per kg seed): 88%
Percentage germinated ([1]; 4 ml formulated per kg seed): 78%
Percentage germinated ([1]; 8 ml formulated per kg seed): 61%
Percentage germinated ([1]; 23 ml formulated per kg seed): 73%
number of utilizable plants after 14 days ([2]; 2 ml formulated per kg seed): 0.3
percentage of damaged seeds after 14 days ([2]; 2 ml formulated per kg seed): 97%
Mean number of damaged seeds per pot [2, 3]: 5.0
Mean number of dead slugs per pot [2, 3]: 0
Mean number fecal pellets per pot [2, 4]: 42
Mean number of damaged seeds per pot [2, 4]: 18.0
Mean number of dead slugs per pot [2, 4]: 0
Mean number of plants present per pot [2, 4]: 7.3
Mean number fecal pellets per pot [2, 5]: 107
Mean number of damaged seeds per pot [2, 5]: 37.3
Mean number of dead slugs per pot [2, 5]: 0
Mean number of plants present per pot [2, 5]: 0.3
Mean number fecal pellets per pot [2, 6]: 158
Mean number of damaged seeds per pot [2, 6]: 39.0
Mean number of dead slugs per pot [2, 6]: 0
Mean number of plants present per pot [2, 6]: 0.3
Mean number fecal pellets per pot [2, 7]: 144
Mean number of damaged seeds per pot [2, 7]: 38.8
Mean number of dead slugs per pot [2, 7]: 0
Mean number of plants present per pot [2, 7]: 0.3
number of utilizable plants after 14 days ([2]; 4 ml formulated per kg seed): 0
percentage of damaged seeds after 14 days ([2]; 4 ml formulated per kg seed): 98%
Mean number of damaged seeds per pot [2, 13]: 1.8
Mean number of dead slugs per pot [2, 13]: 0
Mean number fecal pellets per pot [2, 14]: 30
Mean number of damaged seeds per pot [2, 14]: 15.5
Mean number of dead slugs per pot [2, 14]: 0
Mean number of plants present per pot [2, 14]: 6.0
Mean number fecal pellets per pot [2, 15]: 115
Mean number of damaged seeds per pot [2, 15]: 37.0
Mean number of dead slugs per pot [2, 15]: 0
Mean number of plants present per pot [2, 15]: 0.3
Mean number fecal pellets per pot [2, 16]: 126
Mean number of damaged seeds per pot [2, 16]: 36.5
Mean number of dead slugs per pot [2, 16]: 0.3
Mean number of plants present per pot [2, 16]: 0
Mean number fecal pellets per pot [2, 17]: 133
Mean number of damaged seeds per pot [2, 17]: 39.0
Mean number of dead slugs per pot [2, 17]: 0.5
Mean number of plants present per pot [2, 17]: 0
number of utilizable plants after 14 days ([2]; 8 ml formulated per kg seed): 3.8
percentage of damaged seeds after 14 days ([2]; 8 ml formulated per kg seed): 84%
Mean number of damaged seeds per pot [2, 18]: 2.0
Mean number of dead slugs per pot [2, 18]: 0
Mean number fecal pellets per pot [2, 19]: 33
Mean number of damaged seeds per pot [2, 19]: 10.3
Mean number of dead slugs per pot [2, 19]: 0
Mean number of plants present per pot [2, 19]: 5.5
Mean number fecal pellets per pot [2, 20]: 85
Mean number of damaged seeds per pot [2, 20]: 29.8
Mean number of dead slugs per pot [2, 20]: 0
Mean number of plants present per pot [2, 20]: 5.3
Mean number fecal pellets per pot [2, 21]: 108
Mean number of damaged seeds per pot [2, 21]: 30.8
Mean number of dead slugs per pot [2, 21]: 0
Mean number of plants present per pot [2, 21]: 5.5
Mean number fecal pellets per pot [2, 22]: 112
Mean number of damaged seeds per pot [2, 22]: 33.8
Mean number of dead slugs per pot [2, 22]: 0.3
Mean number of plants present per pot [2, 22]: 5.5
number of utilizable plants after 14 days ([2]; 23 ml formulated per kg seed): 2.5
percentage of damaged seeds after 14 days ([2]; 23 ml formulated per kg seed): 79%
Mean number of damaged seeds per pot [2, 23]: 0.5
Mean number of dead slugs per pot [2, 23]: 0
Mean number fecal pellets per pot [2, 24]: 20
Mean number of damaged seeds per pot [2, 24]: 8.5
Mean number of dead slugs per pot [2, 24]: 0.3
Mean number of plants present per pot [2, 24]: 6.8
Mean number fecal pellets per pot [2, 25]: 91
Mean number of damaged seeds per pot [2, 25]: 29.8
Mean number of dead slugs per pot [2, 25]: 0.3
Mean number of plants present per pot [2, 25]: 6.3
Mean number fecal pellets per pot [2, 26]: 122
Mean number of damaged seeds per pot [2, 26]: 30.0
Mean number of dead slugs per pot [2, 26]: 0.8
Mean number of plants present per pot [2, 26]: 7.0
Mean number fecal pellets per pot [2, 27]: 131
Mean number of damaged seeds per pot [2, 27]: 31.5
Mean number of dead slugs per pot [2, 27]: 0.8
Mean number of plants present per pot [2, 27]: 5.8
differences in the number of damaged seeds [2]: did not result in significant differences
protection / slug controlling effect (conclusion) [2]: no sufficient protection to the plants
